Tested on: Cocaine-targeting aptamer (DNA, aptamer) AGACAAGGAAAATCCTTCAATGAAGTGGGTCG
Assay: square wave voltammetry, aptamer on gold microelectrode
Settings: PBS; MCH-passivated; non-coated and PSB-coated sensors same calibration, modified Langmuir fit, constant not given

COC(=O)[C@H]1[C@@H](OC(=O)c2ccccc2)C[C@@H]2CC[C@H]1N2C
binding: yes
